This is an account of results in paper PMC9653966, “Simultaneous Degradation Study of Isomers in Human Plasma by HPLC-MS/MS and Application of LEDA Algorithm for Their Characterization” (International Journal of Molecular Sciences, 2022).

The structures appear in SMILES notation. Where two headings read alike, the source gives them in different places.

A short description of data set [1]: Chemical stability test in human plasma (enzymatic hydrolysis, HPLC-MS/MS). As to conditions: for LEDA195–221 k ± 2SD (degradation rate): LEDA195–221 matrix (Table S4); for behaviour towards plasma enzymes (hydrolysis or stable) / half-life at 1 µM: human plasma; for behaviour towards plasma enzymes (hydrolysis or stable): all sample sets (pure isomer and mixture), up to 120 min at 37 °C; for half-life at 1 µM: human. It is filed as in vitro ADME. How it is done:
The present investigation was carried out to evaluate the variation of hydrolytic activity of the human plasma enzymatic system when two potential substrates were simultaneously present. […] Therefore, the human plasma sample solutions, prepared with a mixture of isomers, presented both a substrate and a potential interference, which could influence the enzyme functionality. To correctly monitor this process, it must be possible to distinguish each isomer present in the sample, quantify it with the proper calibration curve and plot its degradation profile. The LEDA algorithm was used to support this investigation and to test its quali-quantitative ability in a complex matrix of human plasma samples. The experimental plan involved the analysis of three series of human plasma samples for each couple of isomers: two series of samples were added to a pure isomer, to check the activity of the plasma enzyme system without interferences, and the last series of samples were spiked with the equimolar mixture of isomers. The series of samples were prepared, as described in Section 4.6 and analyzed with the proper HPLC-MS/MS method. The acquired data were processed with the conventional quantitative method for the series containing the single isomers, and with the LEDA approach for the samples spiked with the mixture of isomers. The samples containing a single isomer were worked out by the integration of quantitative Pi signal and the estimation of PAR value by dividing with IS abundance, and quantitative determination of the analyte in the sample was obtained by using the proper calibration curve. In contrast, in the samples spiking with the mixture of isomers, each proposed LEDA matrix recognized the relative concentration of the isomers present in the sample. Therefore, their abundance in the precursor ion signal (or Ri signal) were assigned, each PAR value calculated by dividing with the IS abundance, and quantitative determination of the analytes in the sample were performed by using the respective precursor ion calibration curve. In Figure 6, an example of the degradation plots of the mixtures of the ELF94 and ELF96 isomers is shown, while all the degradation profiles are reported in the Supplementary Material (Figures S20–S25).
Each sample was prepared by adding 10 µL of proper spiked solution to 100 µL of human plasma matrix in a 1.5 mL microcentrifuge tube. The obtained solution corresponds to 1 μM of analyte that undergo degradation study. Each set of samples was prepared in triplicate and incubated for four different times: 0, 30, 60, and 120 min at 37 °C. Therefore, each stability panel of studied analyte was represented by a batch of 12 samples (4 incubation times, 3 replicates). After the incubation, 300 µL of IS solution was added to the sample and then centrifuged (room temperature for 5 min at 800× g). Then, the supernatant was transferred to autosampler vials, dried under a gentle stream of nitrogen and dissolved in 1.0 mL of 10 mM of formic acid in mQ water:acetonitrile 80:20 solution [23, 24, 25, 27, 28, 29, 30]. Each sample batch included the blank samples of human plasma matrix, prepared as described above, with the addition only of the IS solution. Thus, the analysis of the blank samples can check any interference in the analyte MRM signals due to the matrix components. Three sets of six replicates for each analyte were prepared to evaluate the matrix effect (ME) and the analyte recovery (RE) of the proposed method. The same evaluation was extended to the IS to verify its reliability as a quantitative reference. Set A was prepared by mixing 10 µL of spiked solution with 300 µL of IS solution. Set B was obtained by mixing 100 µL of plasma with 300 µL of acetonitrile and, after centrifugation and separation of the supernatant, by adding 10 µL of spiked solution to each analyte or 300 µL of IS solution. […]

Details of data set [2]: method as in PMID 27882889, PMID 29536775, PMID 35753165, PMID 30947123. As to conditions: check of hydrolytic activity of the plasma pool; own degradation plot comparable to literature value; cited from earlier work.
Setting [3] is: human plasma spiked with equimolar mixture of the isomer pair, 1 μM each, 37 °C, LEDA195–221 matrix.
Where [4] appears, read: human plasma spiked with isomers mixture.
Where [5] appears, read: human plasma spiked with isomers mixture, LEDAall matrix (Table S4).
Setting [6] is: human plasma spiked with the pure isomer, 1 μM, 37 °C, 0-120 min, conventional quantitative processing.
[7] abbreviates: human plasma spiked with equimolar mixture of the isomer pair, 1 μM each, 37 °C, LEDA195–221 matrix, read-out: Mix t1/2 ± 2SD.
Setting [8] is: human plasma spiked with isomers mixture, LEDAall matrix (Table S4), read-out: LEDAall t1/2 ± 2SD.
Where [9] appears, read: human plasma spiked with the pure isomer, 1 μM, 37 °C, 0-120 min, conventional quantitative processing, read-out: Pure Isomer t1/2 ± 2SD.

As for `COc1cc(/C=C/C(=O)OCCCCCCN(C)CCCOC(=O)c2cc(OC)c(OC)c(OC)c2)cc(OC)c1OC` [ELF96], the “Mix k ± 2SD (degradation rate)” value in data set [1] (setting [3]) was <0.006 ln(μM)/min. The “LEDA195–221 k ± 2SD (degradation rate)” value in data set [1] (setting [4]) is < 0.006 ln(M)/min. Moreover, the “LEDAall k ± 2SD (degradation rate)” value in data set [1] (setting [5]) is on record as < 0.006 ln(M)/min. Besides, the “Pure Isomer k ± 2SD (degradation rate)” value in data set [1] (setting [6]) is listed as <0.006 ln(μM)/min. In addition, the “behaviour towards plasma enzymes (hydrolysis or stable)” value (shortened to “behaviour towards plasma enzymes”) in data set [1] is “remained constant”. The half-life at 1 µM in data set [1] (setting [7]), in data set [1] (setting [8]) and in data set [1] (setting [9]) was greater than 120 min each time.
Regarding `COc1cc(/C=C/C(=O)OCCCN(C)CCCCCOC(=O)c2cc(OC)c(OC)c(OC)c2)cc(OC)c1OC` [FRA76], in data set [1] (setting [3]), the “Mix k ± 2SD (degradation rate)” value is recorded as −0.019 ± 0.003 ln(μM)/min. Further, the “LEDA195–221 k ± 2SD (degradation rate)” value in data set [1] (setting [4]) is −0.019 ± 0.003 ln(M)/min. For the same molecule, the “LEDAall k ± 2SD (degradation rate)” value in data set [1] (setting [5]) is −0.019 ± 0.005 ln(M)/min. Moreover, the “Pure Isomer k ± 2SD (degradation rate)” value in data set [1] (setting [6]) is −0.017 ± 0.001 ln(μM)/min. The “behaviour towards plasma enzymes” value in data set [1] is “hydrolysis”. Besides, the half-life at 1 µM was determined as 32 ± 18 min in data set [1] (setting [7]), 32 ± 19 min in data set [1] (setting [8]) and 43 ± 16 min in data set [1] (setting [9]).
As for `COc1cc(/C=C/C(=O)OCCCN(C)CCCCCCOC(=O)c2cc(OC)c(OC)c(OC)c2)cc(OC)c1OC` [ELF94], in data set [1] (setting [3]), the “Mix k ± 2SD (degradation rate)” value was −0.023 ± 0.005 ln(μM)/min. Moreover, the “LEDA195–221 k ± 2SD (degradation rate)” value in data set [1] (setting [4]) was −0.023 ± 0.005 ln(M)/min. The “LEDAall k ± 2SD (degradation rate)” value in data set [1] (setting [5]) is recorded as −0.023 ± 0.003 ln(M)/min. For the same molecule, in data set [1] (setting [6]), the “Pure Isomer k ± 2SD (degradation rate)” value is on record as −0.014 ± 0.001 ln(μM)/min. Further, the “behaviour towards plasma enzymes” value in data set [1] is given as “hydrolysis”. Also, the half-life at 1 µM in data set [1] (setting [7]) worked out at 34 ± 14 min; in data set [1] (setting [8]), 34 ± 15 min; in data set [1] (setting [9]), 49 ± 18 min.
In the case of `COc1cc(/C=C/C(=O)OCCCCCN(C)CCCOC(=O)c2cc(OC)c(OC)c(OC)c2)cc(OC)c1OC` [GDE5], the “Mix k ± 2SD (degradation rate)” value in data set [1] (setting [3]) is reported as <0.006 ln(μM)/min. The “LEDA195–221 k ± 2SD (degradation rate)” value in data set [1] (setting [4]) was < 0.006 ln(M)/min. Besides, the “LEDAall k ± 2SD (degradation rate)” value in data set [1] (setting [5]) was < 0.006 ln(M)/min. For the same molecule, the “Pure Isomer k ± 2SD (degradation rate)” value in data set [1] (setting [6]) is recorded as <0.006 ln(μM)/min. Also, the “behaviour towards plasma enzymes” value in data set [1] is given as “remained constant”. The half-life at 1 µM in data set [1] (setting [7]), in data set [1] (setting [8]) and in data set [1] (setting [9]) was greater than 120 min throughout.
In the case of `CCOC(=O)C(C)c1cccc(C(=O)c2ccccc2)c1` (stereo not drawn) [KEE, Ketoprofen ethyl ester], the “t1/2 of the reference compound in human plasma” value in data set [2] was no more than 120 min.
